How the values were obtained:
[1] = test system: HCT116 human colorectal tumor cells; assay: HCT116 human colorectal xenograft model; assay type: in vivo, female NMRI nude mice
Description: (§1) Tumor cells grown in cell culture were implanted subcutaneously in the flank of female or male NMRI nude mice. The treatment was started as soon as the tumors had grown to a size of approx. 20 mm^2 The study was ended as soon as the tumors in one of the groups reached a size of approx. 150 mm^2.
(§2) Vehicle group: treatment with solubilizer (40% PEG400/60% water)
(§3) The studies were designed for determining the initial response of the human tumor model to the treatment with the Exemplary compound 2-SI-2. Tumor growth inhibition in percent (TGI) was either calculated at the end of the studies from the tumor weights (TGITW) using the formula 100×[1−(tumor weight of the treatment group/tumor weight of the vehicle group)], or on the day the vehicle group had to be ended from the tumor areas (TGITA) using the formula 100×[1−(tumor area of the treatment group on the day of the measurement−tumor area of the treatment group prior to treatment)/(tumor area of the vehicle group on the day of the measurement−tumor area of the vehicle group prior to treatment)]. In the case of a tumor growth inhibition of more than 50%, the treatment was considered to have been effective.
Efficacy in the HCT116 human colorectal xenograft model.
HCT116 human colorectal tumor cells implanted into female NMRI nude mice.
• a) 0.15 mg/ml, 0.20 mg/ml of Example 2-SI-2 in 40% (v/v) PEG 400 in water • b) 0.20 mg/ml, 0.25 mg/ml of Example 2-SI-2 in 40% (v/v) PEG 400 in water • c) 0.40 mg/ml, 0.50 mg/ml, 0.60 mg/ml of Example 2-SI-2 in 40% (v/v) PEG 400 in water
• a) 1.5 and 2.0 mg/kg (4.5 and 6.0 mg/m^2), 1× per day. • b) 2.0 and 2.5 mg/kg (6.0 and 7.5 mg/m^2), 2× per day on 2 successive days, followed by 5 treatment-free days. • c) 4.0 to 6.0 mg/kg (12 to 18 mg/m^2), 1× per day on 2 successive days, followed by 5 treatment-free days.

[2] = test system: NCI-H526 human small-cell lung tumor cells; assay: NCI-H526 human small-cell lung tumor model; assay type: in vivo, female NMRI nude mice
Description: as §1, §2, §3
Efficacy in the NCI-H526 human small-cell lung tumor model.
NCI-H526 human small-cell lung tumor cells implanted into female NMRI nude mice.
• a) 0.20 mg/ml of Example 2-SI-2 in 40% (v/v) PEG 400 in water • b) 0.20 mg/ml of Example 2-SI-2 in 40% (v/v) PEG 400 in water • c) 0.15 mg/ml of Example 2-SI-2 in 40% (v/v) PEG 400 in water • d) 0.17 mg/ml of Example 2-SI-2 in 40% (v/v) PEG 400 in water
• a) 2.0 mg/kg (6.0 mg/m^2), 1× per day. • b) 2.0 mg/kg (6.0 mg/m^2), 2× per day on 2 successive days, followed by 5 treatment-free days. • c) 1.5 mg/kg (4.5 mg/m^2), 2× per day on 3 successive days, followed by 4 treatment-free days. • d) 1.7 mg/kg (5.1 mg/m^2), 2× per day on 3 successive days, followed by 4 treatment-free days.

[3] = test system: HeLa-MaTu human cervix carcinoma cells; assay: HeLa-MaTu human cervix carcinoma xenograft model; assay type: in vivo, female NMRI nude mice
Description: as §1, §2, §3
Efficacy in the HeLa-MaTu human cervix carcinoma xenograft model
HeLa-MaTu human cervix carcinoma cells implanted into female NMRI nude mice
• a) 0.05 mg/ml, 0.10 mg/ml, 0.15 mg/ml, 0.2 mg/ml of Example 2-SI-2 in 40% (v/v) PEG 400 in water • b) 0.15 mg/ml, 0.2 mg/ml, 0.25 mg/ml of Example 2-SI-2 in 40% (v/v) PEG 400 in water
• a) 0.5 to 2.0 mg/kg (1.5 to 6.0 mg/m^2) 1× per day b) 1.5 to 2.5 mg/kg (4.5 to 7.5 mg/m^2) 2× per day on 2 successive days, followed by 5 treatment-free days

A2780-Cis = assay: Proliferation assay A2780-Cis; assay type: cell-based; conditions: Homo sapiens, A2780cis, 96 h, ovarial carcinoma, 4 days, crystal violet
Experimental: Cultivated human tumor cells (originally obtained from ATCC, HeLa-MaTu and HeLa-MaTu-ADR, originally obtained from Epo GmbH, Berlin, Germany) were plated at a density of 1000 to 5000 cells/measuring point, depending on the growth rate of the cell line, in a 96-well multititer plate in 200 μl of growth medium (DMEM/HAMS F12, 2 mM L-glutamine, 10% fetal calf serum). After 24 hours the cells of one plate (zero-point plate) were stained with crystal violet (see below), whereas the medium of the other plates was replaced with fresh culture medium (200 μl), to which the test substances had been added at various concentrations (0 μM, and in the range 0.01-30 μM; the final concentration of the solvent dimethyl sulfoxide was 0.5%). The cells were incubated for 4 days in the presence of the test substances. Cellular proliferation was determined by staining the cells with crystal violet: the cells were fixed by adding 20 μl/measuring point of an 11% glutaraldehyde solution for 15 min at room temperature. […] The extinction was determined photometrically at a wavelength of 595 nm. The percentage change in cell growth was calculated by standardization of the measured values to the extinction values of the zero-point plate (=0%) and the extinction of the untreated (0 μM) cells (=100%). […] The IC50 values were determined by means of a 4-parameter fit using the company's own software. […]

[4] = HCT116; b) 2.5 mg/kg oral 2× per day on 2 successive days, followed by 5 treatment-free days
[5] = HeLa-MaTu; b) 2.5 mg/kg oral 2× per day on 2 successive days, followed by 5 treatment-free days

Compound: C[C@@H](O)[C@@H](C)Oc1nc(Nc2ccc(S(C)(=N)=O)cc2)ncc1C(F)(F)F (mixture of isomers) [Example 2-SI-2, (RS)—S-(4-{[4-{[(1R,2R)-2-Hydroxy-1-methylpropyl]oxy}-5-(trifluoromethyl)pyrimidin-2-yl]-amino}phenyl)-S-methylsulfoximide]
- TGITW (tumor growth inhibition from tumor weights) ([1]; HCT116; a) 2.0 mg/kg oral 1× per day): 67%
- TGITW (tumor growth inhibition from tumor weights) [1, 4]: 57%
- tumor regression observation [1, 4]: signs of tumor regression
- TGITW (tumor growth inhibition from tumor weights) ([1]; HCT116; c) 5.0 mg/kg oral 1× per day on 2 successive days, followed by 5 treatment-free days): 83%
- TGITW (tumor growth inhibition from tumor weights) ([2]; NCI-H526; a) 2.0 mg/kg oral 1× per day): 98%
- TGITW (tumor growth inhibition from tumor weights) ([2]; NCI-H526; b) 2.0 mg/kg oral 2× per day on 2 successive days, followed by 5 treatment-free days): 72%
- TGITW (tumor growth inhibition from tumor weights) ([2]; NCI-H526; c) 1.5 mg/kg oral 2× per day on 3 successive days, followed by 4 treatment-free days): 79%
- TGITW (tumor growth inhibition from tumor weights) ([2]; NCI-H526; d) 1.7 mg/kg oral 2× per day on 3 successive days, followed by 4 treatment-free days): 88%
- TGITW (tumor growth inhibition from tumor weights) ([3]; HeLa-MaTu; a) 2.0 mg/kg oral 1× per day): 97%
- TGITW (tumor growth inhibition from tumor weights) [3, 5]: 98%
- tumor regression observation [3, 5]: signs of tumor regression

Compound: C[C@@H](O)[C@@H](C)Oc1nc(Nc2ccc(S(C)(=N)=O)cc2)ncc1C(F)(F)F (single isomer, unassigned) [Example 2-SI-2]
- IC50 (A2780-Cis): 0.01 µM
